The target in test [1] is T1, human enzyme NAMPT (full length) (Homo sapiens, UniProt P43490).
T1 construct: human enzyme NAMPT (full length)
Put plainly: NMN fluorescence biochemical assay (stimulation of NMN synthesis by NAMPT). Conditions: for EC50: concentration giving half-maximal activation, read-out: Enzymatic EC50; for Enzymatic Emax: fold change of maximal activation compared to DMSO. In short, it runs like this: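 Full-length human NAMPT (100 nM) was preincubated 15 min at 37 °C with compound in 50 mM Tris-HCl pH 7.5, 10 mM MgCl2, 2 mM DTT, then reacted 1 h at 37 °C with 50 μM NAM, 100 μM PRPP, 4 mM ATP (stated solution concentrations). NMN was derivatised with acetophenone/KOH then formic acid and read at Ex/Em 382/445 nm; EC50 and Emax (fold over DMSO) reported.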

Test [2] relates to endogenous NAMPT in U2OS cells. Briefly: Cellular NAD+ modulation assay (NAD/NADH-Glo, U2OS cells). In kind it is cell-based. The conditions noted are these: Homo sapiens; for maximal fold induction: read-out: Cellular Emax. On the procedure:
Certain compounds described herein were also assayed for their ability to stimulate the endogenous NAMPT in a native cellular environment in a cellular NAD^+ modulation assay. U2OS cells were grown in McCoy's 5A medium with 10% fetal bovine serum, in a humidified incubator with an atmosphere of 95% air and 5% CO2 at 37° C. The assays were initiated by plating 30 μL of U2OS cells in a culture medium with 10% fetal bovine serum, at a density of 3000 cells per well in a Corning® 384-well White/Clear Bottom Polystyrene Microplate. The plates were incubated in 37T incubators for a period of 16 hours. Test compounds with a series of concentrations in DMSO were added to the plates in a volume of 150 nL using Echo Liquid handlers. The plates are then incubated for 24 hours. The medium was removed from the wells, then 10 μL PBS was added to each well. To each well of cells in 10 μL of PBS, 10 μL of base solution with 1% DTAB was added. The plate was briefly mixed on a plate shaker to ensure homogeneity and cell lysis (5 mins). 10p L of 0.4N HCl was added per well. The plate was coved, and all samples were incubated for 15 minutes at 60° C. Then the plate was equilibrated for 10 minutes at room temperature. 10 μL of 0.5M Trizma® base was added to each well of acid-treated cells to neutralize the acid. Finally, 30 μL of NAD/NADH-Glo™ Detection Reagent was added. The plate was gently shaken to mix the samples. The plate was incubated for 40 minutes at room temperature. Luminescence was recorded using a luminometer. The potency measurements for the test compounds were quantified and represented as EC50 (concentration of a compound that gives half-maximal activation) and Emax (fold change of a compound's maximal activation compared to DMSO).

[3] abbreviates: NMN synthesis by purified human NAMPT (100 nM).
Setting [4] is: 24 hours incubation with compound.
Where [5] appears, read: NMN fluorescence assay, purified human NAMPT 100 nM.
[6] abbreviates: 24 hours incubation, cellular NAD+.

Structures are written as SMILES. Read-outs that look alike come from different tables or passages of the source.

T1 sequence (P43490 whole entry): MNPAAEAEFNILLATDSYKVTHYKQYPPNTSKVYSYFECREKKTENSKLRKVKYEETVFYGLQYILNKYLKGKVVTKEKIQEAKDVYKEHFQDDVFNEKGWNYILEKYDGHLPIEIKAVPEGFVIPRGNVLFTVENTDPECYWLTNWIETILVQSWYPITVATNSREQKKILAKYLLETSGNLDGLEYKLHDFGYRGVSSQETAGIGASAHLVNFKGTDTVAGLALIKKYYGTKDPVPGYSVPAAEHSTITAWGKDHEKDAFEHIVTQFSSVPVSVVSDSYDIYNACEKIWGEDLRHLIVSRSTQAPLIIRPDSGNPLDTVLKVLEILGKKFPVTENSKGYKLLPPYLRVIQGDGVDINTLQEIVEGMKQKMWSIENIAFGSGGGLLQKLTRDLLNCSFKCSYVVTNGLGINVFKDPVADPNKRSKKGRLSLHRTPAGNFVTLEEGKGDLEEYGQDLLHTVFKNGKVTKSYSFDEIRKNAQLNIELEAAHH

As a reminder, the EC50 is the concentration needed to bring the measured effect to its halfway point. Regarding `O=C1c2ccc(C3CC3)cc2C(Cc2ncccc2Br)N1Cc1ccc2[nH]c(=O)oc2c1` (stereo not drawn) [Compound 209, 6-((3-((3-bromopyridin-2-yl)methyl)-5-cyclopropyl-1-oxoisoindolin-2-yl)methyl)benzo[d]oxazol-2(3H)-one], the EC50 in test [1] (setting [3]) and in test [2] (setting [4]) was less than 0.5 µM each time. In addition, the “Enzymatic Emax” value in test [1] was “A (A>3)”. Further, the maximal fold induction in test [2] (setting [4]) was greater than 1.5.
Regarding `O=C1c2ccccc2C(Cc2ncccc2Br)N1Cc1ccc(=O)[nH]c1` (stereo not drawn) [Compound 322, 3-((3-bromopyridin-2-yl)methyl)-2-((6-oxo-1,6-dihydropyridin-3-yl)methyl)isoindolin-1-one], the EC50 in test [1] (setting [5]) was 0.5 to 5 µM. For the same molecule, in test [1], the “Enzymatic Emax” value is on record as “A (A>3)”. In test [2] (setting [6]), the EC50 was 0.5 to 5 µM and the maximal fold induction was greater than 1.5.
In the case of `O=C1c2ccccc2C(Cc2nccc(F)c2Br)N1Cc1ccc2[nH]c(=O)oc2c1` (stereo not drawn) [Compound 211, 6-((1-((3-bromo-4-fluoropyridin-2-yl)methyl)-3-oxoisoindolin-2-yl)methyl)benzo[d]oxazol-2(3H)-one], the EC50 in test [1] (setting [3]) was less than 0.5 µM. In test [1], the “Enzymatic Emax” value was “A (A>3)”. Further, in test [2] (setting [4]), the EC50 is less than 0.5 µM and the maximal fold induction is greater than 1.5.
As to `Cn1cnc(C#N)c1CC1c2ccccc2C(=O)N1Cc1ccc2[nH]nnc2c1` (stereo not drawn) [Compound 315, 5-((2-((1H-benzo[d][1,2,3]triazol-5-yl)methyl)-3-oxoisoindolin-1-yl)methyl)-1-methyl-1H-imidazole-4-carbonitrile], the values for the EC50 in test [1] (setting [3]) and in test [2] (setting [4]) were 0.5 to 5 µM and 5 to 50 µM, respectively. The “Enzymatic Emax” value in test [1] is reported as “A (A>3)”. In test [2] (setting [4]), the maximal fold induction was in the range of 1.2 to 1.5.
On to `N#Cc1cccc(CC2c3ccccc3C(=O)N2Cc2ccc3[nH]c(=O)oc3c2)c1` (stereo not drawn) [Compound 131, 3-((3-oxo-2-((2-oxo-2,3-dihydrobenzo[d]oxazol-6-yl)methyl)isoindolin-1-yl)methyl) benzonitrile], for which the EC50 in test [1] (setting [3]) lay in the range of 0.5 to 5 µM. Besides, the “Enzymatic Emax” value in test [1] is “A (A>3)”. Besides, in test [2] (setting [4]), the EC50 lay in the range of 0.5 to 5 µM and the maximal fold induction is greater than 1.5.
With `N#Cc1cncc(C#N)c1CC1c2ccccc2C(=O)N1Cc1ccc2[nH]nnc2c1` (stereo not drawn) [Compound 351, 4-((2-((1H-benzo[d][1,2,3]triazol-5-yl)methyl)-3-oxoisoindolin-1-yl)methyl)pyridine-3,5-dicarbonitrile], the EC50 in test [1] (setting [5]) and in test [2] (setting [6]) was less than 0.5 µM each time. Further, in test [1], the “Enzymatic Emax” value is “A (A>3)”. Also, the maximal fold induction in test [2] (setting [6]) was greater than 1.5.
`O=C1c2ccccc2C(Cc2cnccc2Cl)N1Cc1ccc2[nH]c(=O)oc2c1` (stereo not drawn) [Compound 175, 6-((1-((4-chloropyridin-3-yl)methyl)-3-oxoisoindolin-2-yl)methyl)benzo[d]oxazol-2(3H)-one]: the EC50 in test [1] (setting [3]) is less than 0.5 µM. For the same molecule, the “Enzymatic Emax” value in test [1] is recorded as “B (3≥B>2)”. In test [2] (setting [4]), the EC50 is less than 0.5 µM and the maximal fold induction was greater than 1.5.
Take `Cc1ccnc(C(C)(C)O)c1CC1c2ccccc2C(=O)N1Cc1ccc2[nH]nnc2c1` (stereo not drawn) [Compound 375, 2-((1H-benzo[d][1,2,3]triazol-5-yl)methyl)-3-((2-(2-hydroxypropan-2-yl)-4-methylpyridin-3-yl)methyl)isoindolin-1-one]: the EC50 in test [1] (setting [5]) was less than 0.5 µM. Also, the “Enzymatic Emax” value in test [1] was “A (A>3)”. Moreover, in test [2] (setting [6]), the EC50 was less than 0.5 µM and the maximal fold induction is greater than 1.5.
Turning to `Cc1cncc(C#N)c1CC1c2ccccc2C(=O)N1CC1CC2(CNC(=O)O2)C1` (stereo not drawn) [Compound 492, 5-methyl-4-((3-oxo-2-((6-oxo-5-oxa-7-azaspiro[3.4]octan-2-yl)methyl)isoindolin-1-yl)methyl)nicotinonitrile], the EC50 in test [1] (setting [5]) was less than 0.5 µM. Moreover, the “Enzymatic Emax” value in test [1] is recorded as “B (3≥B>2)”. Besides, in test [2] (setting [6]), the EC50 is less than 0.5 µM and the maximal fold induction is greater than 1.5.
Turning to `CC1c2cc(F)ccc2C(=O)N1Cc1ccc2[nH]c(=O)oc2c1` (stereo not drawn) [Compound 275, 6-((5-fluoro-3-methyl-1-oxoisoindolin-2-yl)methyl)benzo[d]oxazol-2(3H)-one], the EC50 in test [1] (setting [3]) is no less than 5 µM. For the same molecule, the “Enzymatic Emax” value in test [1] is “B (3≥B>2)”. In test [2] (setting [4]), the EC50 fell in the range of 0.5 to 5 µM and the maximal fold induction was greater than 1.5.
As for `Cn1ncc(Cl)c1CC1(C)c2cc(Br)ccc2C(=O)N1Cc1ccc2[nH]c(=O)oc2c1` (stereo not drawn) [Compound 419, 6-((6-bromo-1-((4-chloro-1-methyl-1H-pyrazol-5-yl)methyl)-1-methyl-3-oxoisoindolin-2-yl)methyl)benzo[d]oxazol-2(3H)-one], the EC50 in test [1] (setting [5]) is less than 0.5 µM. Also, the “Enzymatic Emax” value in test [1] was “A (A>3)”. For the same molecule, in test [2] (setting [6]), the EC50 is less than 0.5 µM and the maximal fold induction was greater than 1.5.
On to `COC1CCN(Cc2ccc3c(c2)[C@H](C)N(Cc2ccc4[nH]c(=O)oc4c2)C3=O)C1` (single isomer, unassigned) [Compound 188], for which the EC50 in test [1] (setting [3]) was no less than 5 µM. The “Enzymatic Emax” value in test [1] was “B (3≥B>2)”. In addition, in test [2] (setting [4]), the EC50 was in the range of 0.5 to 5 µM and the maximal fold induction was greater than 1.5.
In the case of `O=c1ccc2ccccc2n1Cc1ccc(O)cc1` [Compound 5, 1-(4-hydroxybenzyl)quinolin-2(1H)-one], in test [1] (setting [3]), the 50% effective concentration (EC50) is no less than 5 µM. For the same molecule, the “Enzymatic Emax” value in test [1] is listed as “A (A>3)”. Also, in test [2] (setting [4]), the EC50 fell in the range of 0.5 to 5 µM and the maximal fold induction was 1.2 to 1.5.
As to `Cn1ncc(Cl)c1CC1c2ccccc2C(=O)N1Cc1cnc(N)s1` (stereo not drawn) [Compound 628, 2-((2-aminothiazol-5-yl)methyl)-3-((4-chloro-1-methyl-1H-pyrazol-5-yl)methyl)isoindolin-1-one], the EC50 in test [1] (setting [5]) was no less than 5 µM; in test [2] (setting [6]), less than 0.5 µM. Also, the “Enzymatic Emax” value in test [1] is on record as “B (3≥B>2)”. In test [2] (setting [6]), the maximal fold induction was in the range of 1.2 to 1.5.
`Cc1ccnc(C#N)c1CC1c2cccc(F)c2C(=O)N1Cc1ccc2[nH]nnc2c1` (stereo not drawn) [Compound 356, 3-((2-((1H-benzo[d][1,2,3]triazol-5-yl)methyl)-4-fluoro-3-oxoisoindolin-1-yl)methyl)-4-methylpicolinonitrile]: the EC50 in test [1] (setting [5]) is less than 0.5 µM. The “Enzymatic Emax” value in test [1] is given as “A (A>3)”. Further, in test [2] (setting [6]), the EC50 is less than 0.5 µM and the maximal fold induction was greater than 1.5.
In the case of `O=c1c2ccccc2ccn1Cc1ccc2[nH]nnc2c1` [Compound 7, 2-((1H-benzo[d][1,2,3]triazol-5-yl)methyl)isoquinolin-1(2H)-one], the EC50 in test [1] (setting [3]) is no less than 5 µM. The “Enzymatic Emax” value in test [1] is listed as “B (3≥B>2)”. In test [2] (setting [4]), the EC50 fell in the range of 5 to 50 µM and the maximal fold induction is 1.2 to 1.5.
`CC1c2cc(C3CCCC3)ccc2C(=O)N1Cc1ccc2[nH]c(=O)oc2c1` (single isomer, unassigned) [Compound 304]: the EC50 in test [1] (setting [3]) and in test [2] (setting [4]) was 0.5 to 5 µM throughout. For the same molecule, in test [1], the “Enzymatic Emax” value is recorded as “C (2≥C)”. In addition, the maximal fold induction in test [2] (setting [4]) fell in the range of 1.2 to 1.5.
On to `CC1c2cc(NC3CC3)ccc2C(=O)N1Cc1ccc2[nH]c(=O)oc2c1` (single isomer, unassigned) [Compound 242], for which the EC50 in test [1] (setting [3]) was no less than 5 µM. Moreover, the “Enzymatic Emax” value in test [1] is listed as “A (A>3)”. In test [2] (setting [4]), the EC50 lay in the range of 0.5 to 5 µM and the maximal fold induction was greater than 1.5.

Source of the values: patent publication US20260078130A1, “NAMPT MODULATORS, PREPARATIONS, AND USES THEREOF” (SIRONAX LTD., priority 2022, published 2026).
